{
  "source": "patent US8507656B2",
  "about": "“Stabilized angiopoietin-2 antibodies and uses thereof” (MedImmune Limited, priority 2008, dated 2013)",
  "key": {"[1]": {"system": "MCF7 xenograft tumors", "experiment": "MCF7 breast cancer xenograft model", "format": "in vivo", "details": "3.19.3 10 mg/kg 2×wk i.p., AZD6495 30 mg/kg bid p.o. 18 d, combination of both", "method": "The anti-tumor activity of the anti-Angiopoietin-2 monoclonal antibody 3.19.3 in combination with the small molecule CSF1R tyrosine kinase inhibitor AZD6495 (4-[(2,4-difluorophenyl)amino]-7-ethoxy-6-(4-methylpiperazin-1-yl)quinoline-3-carboxamide) was evaluated in a xenograft model of human breast carcinoma using the MCF7 cell line (FIG. 4a).\nMaterials and Methods: Breast carcinoma MCF7 cells were cultured in flasks as routine until the cells reach sub-confluence. Immunodeficient 7-10 week old male NCr-nude mice were subcutaneously implanted with 8×10^6 MCF7 cells suspended 1:1 in Matrigel in the right flank. […]\nThe mice were then randomized into cohorts containing 15 mice once the tumors reached approximately 100 mm^3. […] The body weights of each animal, and the dimensions of each tumor were measured twice per week. The volume of the tumor was calculated as: Volume=Length×(Width)^2×0.5 cm^3, or by bilateral Vernier caliper measurement and, taking length to be the longest diameter across the tumor and width the corresponding perpendicular, calculated using the formula (π/6)×(length×width)×√(length×width). Growth inhibition from the start of treatment was assessed by comparison of the differences in tumor volume between control and treated groups."}, "[2]": {"system": "MDA-MB-231 xenograft tumors", "experiment": "MDA-MB-231 orthotopic breast cancer xenograft model", "format": "in vivo", "details": "3.19.3 10 mg/kg 2×wk i.p., AZD6495 30 mg/kg bid p.o. 18 d, combination of both", "method": "The anti-tumor activity of the anti-Angiopoietin-2 monoclonal antibody 3.19.3 in combination with the small molecule CSF1R tyrosine kinase inhibitor AZD6495 was evaluated in a xenograft model of human breast carcinoma using the MDA-MB-231 cell line (FIG. 5a).\nBreast adenocarcinoma MDA-MB-231 cells were cultured in flasks as routine until the cells reach sub-confluence. Immunodeficient 7-10 week old female nude mice were orthotopically implanted with 8×10^6 MDA-MB-231 cells suspended 1:1 in Matrigel into the mammary fat pad. The mice were then randomized into cohorts containing 10 mice once the tumors reached approximately 100 mm^3. The mice were treated by intraperitoneally (IP) injection with mAb 3.19.3 (10 mg/kg) twice per week for 3 weeks thereafter, or by oral administration of AZD6495 (30 mg/kg) following bid dosing for 18 days. […] The body weights of each animal, and the dimensions of each tumor were measured twice per week. The volume of the tumor was calculated as: Volume=Length×(Width)^2×0.5 cm^3, or by bilateral Vernier caliper measurement and, taking length to be the longest diameter across the tumor and width the corresponding perpendicular, calculated using the formula (π/6)×(length×width)×√(length×width). Growth inhibition from the start of treatment was assessed by comparison of the differences in tumor volume between control and treated groups."}, "[3]": {"system": "LoVo xenograft tumors", "format": "in vivo", "details": "3.19.3 10 mg/kg 2×wk i.p., 5FU 100 mg/kg/week i.p., combination of both", "method": "The anti-tumor activity of 3.19.3 was evaluated in combination with 5-Fluoruracil (5FU) in the LoVo xenograft model of colorectal cancer. LoVo cells were cultured in flasks as routine until the cells reached sub-confluence. Cell suspensions containing approximately 3×10E6 cells were injected subcutaneously into the flank of female Swiss nude mice. When the tumor volume reached 200 mm^3, the mice were randomized in treatment groups of 8-10 mice and the treatments were initiated. 3.19.3 (10 mg/kg) in saline was injected intraperitoneally, twice per week for 2 weeks and 5-Flurouracil (100 mg/kg) was administered by intraperitoneal administration following a weekly schedule. The dimensions of each tumor and body weights were measured at least twice per week. The volume of the tumor was calculated as: Volume=Length×(Width)×0.5 (cm^3)."}, "[4]": {"system": "Colo205 xenograft tumors", "experiment": "Colo205 xenograft model of colorectal cancer", "format": "in vivo", "details": "3.19.3 10 mg/kg 2×wk i.p., Gemcitabine 50 mg/kg q3dx2 i.v., combination of both", "method": "The anti-tumor activity of 3.19.3 was evaluated in combination with Gemcitabine in the Colo205 xenograft model of colorectal cancer. Colo205 cells were cultured in flasks as routine until the cells reached sub-confluence. Cell suspensions containing approximately 3×10E6 cells were injected subcutaneously into the flank of female Swiss nude mice. When the tumor volume reached 200 mm^3, the mice were randomized in treatment groups of 8-10 mice and the treatments were initiated. 3.19.3 (10 mg/kg) in saline was injected intraperitoneally, twice per week for 2 weeks. Gemcitabine (50 mg/kg) was administered by intravenous administration following a q3d schedule. The dimensions of each tumor and body weights were measured at least twice per week. The volume of the tumor was calculated as: Volume=Length×(Width)×0.5 (cm^3). […] The % tumor growth inhibition achieved is as follows: […]"}, "[5]": {"system": "H460 xenograft tumors", "format": "in vivo", "details": "3.19.3 10 mg/kg 2×wk i.p., AZD4877 10 mg/kg q4dx2 i.p., combination of both", "method": "The anti-tumor activity of 3.19.3 was evaluated in combination with AZD4877 in the\nH460 xenograft model of lung cancer. H460 cells were cultured in flasks as routine until the cells reached sub-confluence. Cell suspensions containing approximately 3×10E6 cells were injected subcutaneously into the right flank of male NCr nu/nu mice. When the tumor volume reached 200 mm^3, the mice were randomized in treatment groups of 8-10 mice and the treatments were initiated. 3.19.3 (10 mg/kg) in saline was injected intraperitoneally, twice per week for 2 weeks. AZD4877 (10 mg/kg) was administered by intraperitoneal administration following a q4d schedule. The dimensions of each tumor and body weights were measured at least twice per week. The volume of the tumor was calculated as: Volume=Length×(Width)×0.5 (cm^3)."}, "[6]": {"system": "collagen-induced arthritis", "experiment": "Collagen-induced arthritis (CIA), dose response (Example 11)", "format": "in vivo, male DBA/1 mice"}, "[7]": {"details": "0.1 mg/kg ip every 3 days for 14 days from disease onset"}, "[8]": {"details": "1 mg/kg ip every 3 days for 14 days from disease onset"}, "[9]": {"details": "10 mg/kg ip every 3 days for 14 days from disease onset"}},
  "note": "“Also recorded” adds a separate entry of the source. Marks after values point to notes of the source that are not given here.",
  "data": [
    {"substance": "3.19.3: fully human anti-Ang-2 monoclonal antibody, wild type control; light chain SEQ ID No. 1, heavy chain SEQ ID No. 2 [Antibody 3.19.3]", "values": [
      {"measurement": "% tumor growth inhibition", "setting": "[1]", "value": 62, "unit": "%"},
      {"measurement": "% tumor growth inhibition", "setting": "[2]", "value": 17, "unit": "%"},
      {"measurement": "% tumor growth inhibition", "setting": "[3]", "value": 59, "unit": "%"},
      {"measurement": "% tumor growth inhibition", "setting": "[4]", "value": 74, "unit": "%"},
      {"measurement": "% tumor growth inhibition", "setting": "[5]", "value": 64, "unit": "%"},
      {"measurement": "% inhibition (AUC of Clinical Score)", "setting": "[6]; [7]", "value": 16, "unit": "% +/− 13%"},
      {"measurement": "AUC of Clinical Score", "setting": "[6]; [7]", "value": "99 +/− 15"},
      {"measurement": "% inhibition (AUC of Clinical Score)", "setting": "[6]; [8]", "value": 53, "unit": "% +/− 7%*"},
      {"measurement": "AUC of Clinical Score", "setting": "[6]; [8]", "value": "46 +/− 9"},
      {"measurement": "% inhibition (AUC of Clinical Score)", "setting": "[6]; [9]", "value": 44, "unit": "% +/− 9%*"},
      {"measurement": "AUC of Clinical Score", "setting": "[6]; [9]", "value": "67 +/− 11"},
      {"measurement": "CD31+ microvessel density in synovium (in words)", "setting": "[6]; 3.19.3 0.1 mg/kg", "value": "no effect"},
      {"measurement": "histopathological evaluation: synovial hyperplasia, synovitis, pannus, synovial fibrosis, periostitis (in words)", "setting": "[6]; 3.19.3 0.1, 1 and 10 mg/kg, isotype control vs PBS vehicle", "value": "dose-dependent anti-arthritic effect"},
      {"measurement": "CD31+ microvessel density in synovium (in words)", "setting": "[6]; 3.19.3 at 1 and 10 mg/kg, prednisolone 3 mg/kg", "value": "significant reduction in microvessel density; also recorded: significant reduction in the presence of microvessels"},
      {"measurement": "clinical signs of disease progression (arthritic score) (in words)", "setting": "[6]; doses of 1 and 10 mg/kg", "value": "significant reduction"}
    ]}
  ]
}
